Test results reported in US20260262643A1, “HERBICIDAL BENZOXAZINES” (FMC CORPORATION, priority 2022, published 2026).

Assays:
[1] = system: barnyardgrass; assay: Test C preemergence; type: in vivo, Echinochloa crusgalli; details: for Barnyardgrass plant response rating: 500 g ai/ha, preemergence, 0 to 100 scale (0 no effect, 100 complete control); for Plant response rating, Barnyardgrass: Preemergence, 125 g ai/ha, 0 to 100 scale, 0 no effect, 100 complete control
Outline: (§1)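 Visual injury score, 0–100 (100 = complete control), taken 10 days after treatment relative to untreated controls. Pre: directed spray onto soil over sown seeds. Post: foliar spray at one- to two-leaf stage, 2–10 cm. Solvent/surfactant formulation; loam–sand soil; greenhouse.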

[2] = system: blackgrass; assay: Test C preemergence; type: in vivo, Alopecurus myosuroides; details: for Blackgrass plant response rating: 500 g ai/ha, preemergence, 0 to 100 scale (0 no effect, 100 complete control); for Plant response rating, Blackgrass: Preemergence, 125 g ai/ha, 0 to 100 scale, 0 no effect, 100 complete control
Outline: as §1

[3] = system: corn; assay: Test C preemergence; type: in vivo, Zea mays; details: for Corn plant response rating: 500 g ai/ha, preemergence, 0 to 100 scale (0 no effect, 100 complete control); for Plant response rating, Corn: Preemergence, 125 g ai/ha, 0 to 100 scale, 0 no effect, 100 complete control
Outline: as §1

[4] = system: green foxtail; assay: Test C preemergence; type: in vivo, Setaria viridis; details: for Foxtail, Green plant response rating: 500 g ai/ha, preemergence, 0 to 100 scale (0 no effect, 100 complete control); for Plant response rating, Foxtail, Green: Preemergence, 125 g ai/ha, 0 to 100 scale, 0 no effect, 100 complete control
Outline: as §1

[5] = system: kochia; assay: Test C preemergence; type: in vivo, Bassia scoparia; details: for Kochia plant response rating: 500 g ai/ha, preemergence, 0 to 100 scale (0 no effect, 100 complete control); for Plant response rating, Kochia: Preemergence, 125 g ai/ha, 0 to 100 scale, 0 no effect, 100 complete control
Outline: as §1

[6] = system: oat, wild; assay: Test C preemergence; type: in vivo, Avena fatua; details: for Oat, Wild plant response rating: 500 g ai/ha, preemergence, 0 to 100 scale (0 no effect, 100 complete control); for Plant response rating, Oat, Wild: Preemergence, 125 g ai/ha, 0 to 100 scale, 0 no effect, 100 complete control
Source text: (§2) Seeds of plant species selected from barnyardgrass (Echinochloa crusgalli), blackgrass (Alopecurus myosuroides), corn (Zea mays), foxtail, giant (giant foxtail, Setaria faberi), green foxtail (Setaria viridis), goosegrass (Eleusine indica), kochia (Bassia scoparia), oat, wild (wild oat, Avena fatua), pigweed, palmer (palmer amaranth, palmer pigweed, Amaranthus palmeri), Pigweed, Redroot (redroot pigweed, Amaranthus retroflexus), ragweed (common ragweed, Ambrosia artemisiifolia), ryegrass, Italian ([…] ryegrass, Lolium multiflorum), soybean (Glycine max), and wheat (Triticum aestivum) were planted into a blend of loam soil and sand and treated preemergence with a directed soil spray using test chemicals formulated in a non-phytotoxic solvent mixture which included a surfactant. At the same time, plants selected from these crops and weed species and also galium (catchweed bedstraw, Galium aparine) and horseweed (Erigeron canadensis) were planted in pots containing the same blend of loam soil and sand and treated with postemergence applications of test chemicals formulated in the same manner. Plants ranged in height from 2 to 10 cm and were in the one- to two-leaf stage for the postemergence treatment. Treated plants and untreated controls were maintained in a greenhouse for 10 days, after which time all treated plants were compared to untreated controls and visually evaluated for injury. Plant response ratings, summarized in Table C, are based on a 0 to 100 scale where 0 is no effect and 100 is complete control. A dash (-) response means no test result.

[7] = system: pigweed, palmer; assay: Test C preemergence; type: in vivo, Amaranthus palmeri; details: for Pigweed, Palmer plant response rating: 500 g ai/ha, preemergence, 0 to 100 scale (0 no effect, 100 complete control); for Plant response rating, Pigweed, Palmer: Preemergence, 125 g ai/ha, 0 to 100 scale, 0 no effect, 100 complete control
Outline: as §1

[8] = system: ragweed; assay: Test C preemergence; type: in vivo, Ambrosia artemisiifolia; details: for Ragweed plant response rating: 500 g ai/ha, preemergence, 0 to 100 scale (0 no effect, 100 complete control); for Plant response rating, Ragweed: Preemergence, 125 g ai/ha, 0 to 100 scale, 0 no effect, 100 complete control
Outline: as §1

[9] = system: ryegrass, Italian; assay: Test C preemergence; type: in vivo, Lolium multiflorum; details: for Ryegrass, Italian plant response rating: 500 g ai/ha, preemergence, 0 to 100 scale (0 no effect, 100 complete control); for Plant response rating, Ryegrass, Italian: Preemergence, 125 g ai/ha, 0 to 100 scale, 0 no effect, 100 complete control
Outline: as §1

[10] = system: soybean; assay: Test C preemergence; type: in vivo, Glycine max; details: for Soybean plant response rating: 500 g ai/ha, preemergence, 0 to 100 scale (0 no effect, 100 complete control); for Plant response rating, Soybean: Preemergence, 125 g ai/ha, 0 to 100 scale, 0 no effect, 100 complete control
Source text: as §2

[11] = system: wheat; assay: Test C preemergence; type: in vivo, Triticum aestivum; details: for Wheat plant response rating: 500 g ai/ha, preemergence, 0 to 100 scale (0 no effect, 100 complete control); for Plant response rating, Wheat: Preemergence, 125 g ai/ha, 0 to 100 scale, 0 no effect, 100 complete control
Source text: as §2

[12] = system: barnyardgrass; assay: Test C postemergence; type: in vivo, Echinochloa crusgalli; details: 10 days, 0 to 100 scale (0 no effect, 100 complete control)
Outline: as §1

[13] = system: blackgrass; assay: Test C postemergence; type: in vivo, Alopecurus myosuroides; details: 10 days, 0 to 100 scale (0 no effect, 100 complete control)
Outline: as §1

[14] = system: corn; assay: Test C postemergence; type: in vivo, Zea mays; details: 10 days, 0 to 100 scale (0 no effect, 100 complete control)
Outline: as §1

[15] = system: green foxtail; assay: Test C postemergence; type: in vivo, Setaria viridis; details: 10 days, 0 to 100 scale (0 no effect, 100 complete control)
Outline: as §1

[16] = system: kochia; assay: Test C postemergence; type: in vivo, Bassia scoparia; details: 10 days, 0 to 100 scale (0 no effect, 100 complete control)
Outline: as §1

[17] = system: oat, wild; assay: Test C postemergence; type: in vivo, Avena fatua; details: 10 days, 0 to 100 scale (0 no effect, 100 complete control)
Source text: as §2

[18] = system: pigweed, palmer; assay: Test C postemergence; type: in vivo, Amaranthus palmeri; details: 10 days, 0 to 100 scale (0 no effect, 100 complete control)
Outline: as §1

[19] = system: ragweed; assay: Test C postemergence; type: in vivo, Ambrosia artemisiifolia; details: 10 days, 0 to 100 scale (0 no effect, 100 complete control)
Outline: as §1

[20] = system: ryegrass, Italian; assay: Test C postemergence; type: in vivo, Lolium multiflorum; details: 10 days, 0 to 100 scale (0 no effect, 100 complete control)
Outline: as §1

[21] = system: soybean; assay: Test C postemergence; type: in vivo, Glycine max; details: 10 days, 0 to 100 scale (0 no effect, 100 complete control)
Source text: as §2

[22] = system: wheat; assay: Test C postemergence; type: in vivo, Triticum aestivum; details: 10 days, 0 to 100 scale (0 no effect, 100 complete control)
Source text: as §2

[23] = system: galium; assay: Test C postemergence; type: in vivo, Galium aparine; details: 10 days, 0 to 100 scale (0 no effect, 100 complete control)
Outline: as §1

[24] = system: horseweed; assay: Test C postemergence; type: in vivo, Erigeron canadensis; details: 10 days, 0 to 100 scale (0 no effect, 100 complete control)
Outline: as §1

Structure (SMILES): CC(C)c1ncn(-c2ccc(OS(=O)(=O)C(F)(F)F)c(C(=O)N3C[C@H](C)Oc4c(Cl)cccc43)c2)n1 [Compound 339]
- Barnyardgrass plant response rating [1]: 0
- Plant response rating, Barnyardgrass [1]: 0
- Blackgrass plant response rating [2]: 0
- Plant response rating, Blackgrass [2]: 0
- Corn plant response rating [3]: 0
- Plant response rating, Corn [3]: 0
- Foxtail, Green plant response rating [4]: 0
- Plant response rating, Foxtail, Green [4]: 0
- Kochia plant response rating [5]: 50
- Plant response rating, Kochia [5]: 0
- Oat, Wild plant response rating [6]: 0
- Plant response rating, Oat, Wild [6]: 0
- Pigweed, Palmer plant response rating [7]: 0
- Plant response rating, Pigweed, Palmer [7]: 0
- Ragweed plant response rating [8]: 0
- Plant response rating, Ragweed [8]: 0
- Ryegrass, Italian plant response rating [9]: 80
- Plant response rating, Ryegrass, Italian [9]: 20
- Soybean plant response rating [10]: 0
- Plant response rating, Soybean [10]: 0
- Wheat plant response rating [11]: 0
- Plant response rating, Wheat [11]: 0
- Plant response rating, Barnyardgrass ([12]; 500 g ai/ha, postemergence): 10
- Plant response rating, Barnyardgrass ([12]; Postemergence, 125 g ai/ha): 10
- Plant response rating, Blackgrass ([13]; 500 g ai/ha, postemergence): 0
- Plant response rating, Blackgrass ([13]; Postemergence, 125 g ai/ha): 0
- Plant response rating, Corn ([14]; 500 g ai/ha, postemergence): 0
- Plant response rating, Corn ([14]; Postemergence, 125 g ai/ha): 0
- Plant response rating, Foxtail, Green ([15]; 500 g ai/ha, postemergence): 10
- Plant response rating, Foxtail, Green ([15]; Postemergence, 125 g ai/ha): 0
- Plant response rating, Kochia ([16]; 500 g ai/ha, postemergence): 60
- Plant response rating, Kochia ([16]; Postemergence, 125 g ai/ha): 30
- Plant response rating, Oat, Wild ([17]; 500 g ai/ha, postemergence): 0
- Plant response rating, Oat, Wild ([17]; Postemergence, 125 g ai/ha): 0
- Plant response rating, Pigweed, Palmer ([18]; 500 g ai/ha, postemergence): 70
- Plant response rating, Pigweed, Palmer ([18]; Postemergence, 125 g ai/ha): 50
- Plant response rating, Ragweed ([19]; 500 g ai/ha, postemergence): 10
- Plant response rating, Ragweed ([19]; Postemergence, 125 g ai/ha): 0
- Plant response rating, Ryegrass, Italian ([20]; 500 g ai/ha, postemergence): 20
- Plant response rating, Ryegrass, Italian ([20]; Postemergence, 125 g ai/ha): 0
- Plant response rating, Soybean ([21]; 500 g ai/ha, postemergence): 20
- Plant response rating, Wheat ([22]; 500 g ai/ha, postemergence): 0
- Plant response rating, Wheat ([22]; Postemergence, 125 g ai/ha): 0
- Plant response rating, Galium ([23]; 500 g ai/ha, postemergence): 50
- Plant response rating, Galium ([23]; Postemergence, 125 g ai/ha): 60
- Plant response rating, Horseweed ([24]; 500 g ai/ha, postemergence): 10
- Plant response rating, Horseweed ([24]; Postemergence, 125 g ai/ha): 0

Structure (SMILES): CC(C)c1ncn(-c2ccc(S(C)(=O)=O)c(C(=O)N3C[C@H](C)Oc4c(Cl)cccc43)c2)n1 [Compound 393]
- Barnyardgrass plant response rating [1]: 70
- Plant response rating, Barnyardgrass [1]: 40
- Blackgrass plant response rating [2]: 20
- Plant response rating, Blackgrass [2]: 20
- Corn plant response rating [3]: 20
- Plant response rating, Corn [3]: 0
- Foxtail, Green plant response rating [4]: 100
- Plant response rating, Foxtail, Green [4]: 80
- Kochia plant response rating [5]: 90
- Plant response rating, Kochia [5]: 80
- Oat, Wild plant response rating [6]: 40
- Plant response rating, Oat, Wild [6]: 0
- Pigweed, Palmer plant response rating [7]: 100
- Plant response rating, Pigweed, Palmer [7]: 80
- Ragweed plant response rating [8]: 0
- Plant response rating, Ragweed [8]: 0
- Ryegrass, Italian plant response rating [9]: 90
- Plant response rating, Ryegrass, Italian [9]: 0
- Soybean plant response rating [10]: 40
- Plant response rating, Soybean [10]: 20
- Wheat plant response rating [11]: 30
- Plant response rating, Wheat [11]: 0
- Plant response rating, Barnyardgrass ([12]; 500 g ai/ha, postemergence): 50
- Plant response rating, Barnyardgrass ([12]; Postemergence, 125 g ai/ha): 30
- Plant response rating, Blackgrass ([13]; 500 g ai/ha, postemergence): 0
- Plant response rating, Blackgrass ([13]; Postemergence, 125 g ai/ha): 0
- Plant response rating, Corn ([14]; 500 g ai/ha, postemergence): 50
- Plant response rating, Corn ([14]; Postemergence, 125 g ai/ha): 20
- Plant response rating, Foxtail, Green ([15]; 500 g ai/ha, postemergence): 70
- Plant response rating, Foxtail, Green ([15]; Postemergence, 125 g ai/ha): 10
- Plant response rating, Kochia ([16]; 500 g ai/ha, postemergence): 90
- Plant response rating, Kochia ([16]; Postemergence, 125 g ai/ha): 70
- Plant response rating, Oat, Wild ([17]; 500 g ai/ha, postemergence): 40
- Plant response rating, Oat, Wild ([17]; Postemergence, 125 g ai/ha): 0
- Plant response rating, Pigweed, Palmer ([18]; 500 g ai/ha, postemergence): 90
- Plant response rating, Pigweed, Palmer ([18]; Postemergence, 125 g ai/ha): 60
- Plant response rating, Ragweed ([19]; 500 g ai/ha, postemergence): 70
- Plant response rating, Ragweed ([19]; Postemergence, 125 g ai/ha): 60
- Plant response rating, Ryegrass, Italian ([20]; 500 g ai/ha, postemergence): 80
- Plant response rating, Ryegrass, Italian ([20]; Postemergence, 125 g ai/ha): 10
- Plant response rating, Soybean ([21]; 500 g ai/ha, postemergence): 100
- Plant response rating, Soybean ([21]; Postemergence, 125 g ai/ha): 70
- Plant response rating, Wheat ([22]; 500 g ai/ha, postemergence): 20
- Plant response rating, Wheat ([22]; Postemergence, 125 g ai/ha): 10
- Plant response rating, Galium ([23]; 500 g ai/ha, postemergence): 100
- Plant response rating, Galium ([23]; Postemergence, 125 g ai/ha): 70
- Plant response rating, Horseweed ([24]; 500 g ai/ha, postemergence): 20
- Plant response rating, Horseweed ([24]; Postemergence, 125 g ai/ha): 0
